How the values were obtained:
Human recombinant MMP-2 = target: T1, Human recombinant MMP-2 (Homo sapiens, UniProt P08253); assay: In vitro MMP inhibition, Ki determination (fluorogenic substrate II); type: biochemical
T1 construct: made in house; host or cells: MMP-2-transfected p2AHT2 cells
T1 sequence (P08253 110-660): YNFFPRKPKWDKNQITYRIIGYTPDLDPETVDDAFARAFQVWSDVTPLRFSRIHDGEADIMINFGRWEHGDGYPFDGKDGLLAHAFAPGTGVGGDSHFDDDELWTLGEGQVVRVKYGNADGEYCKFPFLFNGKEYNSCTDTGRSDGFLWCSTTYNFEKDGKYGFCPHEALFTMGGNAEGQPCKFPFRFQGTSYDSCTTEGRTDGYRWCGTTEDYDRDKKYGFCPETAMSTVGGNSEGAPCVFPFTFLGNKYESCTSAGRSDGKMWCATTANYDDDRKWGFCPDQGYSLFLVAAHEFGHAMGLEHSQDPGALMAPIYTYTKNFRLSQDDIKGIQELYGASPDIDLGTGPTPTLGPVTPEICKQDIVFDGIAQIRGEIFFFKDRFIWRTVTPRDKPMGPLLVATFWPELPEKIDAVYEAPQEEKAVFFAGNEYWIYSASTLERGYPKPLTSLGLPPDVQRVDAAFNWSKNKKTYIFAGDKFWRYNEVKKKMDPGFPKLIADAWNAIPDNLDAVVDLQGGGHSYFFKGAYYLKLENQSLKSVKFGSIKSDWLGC

Human recombinant MMP-9 = target: T2, Human recombinant MMP-9 (Homo sapiens, UniProt P14780); assay: as above; type: biochemical
T2 construct: made in house; host or cells: MMP-9-transfected HT1080 cells (spent media)
Experimental: Several hydroxamates and salts thereof were analyzed in in vitro assays to determine their ability to inhibit the MMP cleavage of peptide substrates. Inhibition (Ki) and IC50 constants were calculated from the assayed hydroxamate-MMP interactions.
Human recombinant MMP-1, MMP-2, MMP-9, MMP-13, and MMP-14 were used in this assay. All enzymes were prepared in Assignee's laboratories following usual laboratory procedures. Protocols for the preparation and use of these enzymes are available in the scientific literature. See, e.g., Enzyme Nomenclature (Academic Press, San Diego, Calif., 1992) (and the citations therein). See also, Frije et al., J. Biol. Chem., 26(24), 16766-73 (1994).
The MMP-9 proenzyme was purified by gelatin Sepharose chromatography from spent media of MMP-9-transfected HT1080 cells provided by Dr. Howard Welgus of Washington University (St. Louis, Mo.).
All MMPs were activated using 4-aminophenylmercuric acetate (“APMA”, Sigma Chemical, St. Louis, Mo.) or trypsin. MMP-9 also was activated using human recombinant MMP-3 (purified in Assignee's laboratory following standard cloning and purification techniques).
Two fluorogenic, methoxycoumarin-containing polypeptide substrates were used in the MMP inhibition assays:
MCA-ArgProLeuGlyLeuDpaAlaArgGluArgNH2 (II)
Here, “Dpa” is 3-(2,4-dinitrophenyl)-L-2,3-diaminopropionyl group, and “MCA” is 7-methoxycoumarin-4-yl acetyl. Substrate (I) was purchased from Baychem (Redwood City, Calif.), and substrate II was prepared Assignee's laboratory. Substrate I was used in the IC50 determination assays, while substrate II was used in the Ki determination assays. In the absence of MMP inhibitory activity, either substrate is cleaved at the Gly-Leu peptide bond. This cleavage separates the highly fluorogenic peptide from the 2,4-dinitrophenyl quencher, thus resulting in increase of fluorescent intensity.
The stock solutions of the assayed hydroxamates (or salts thereof) were prepared in 1% dimethyl sulfoxide (DMSO). These stock solutions were diluted in Buffer A (100 mM Tris-HCl, 100 mM NaCl, 10 mM CaCl2, 0.05% polyoxyethylene 23 lauryl ether, pH 7.5) to obtain solutions with different hydroxamate concentrations, i.e., assay solutions with different concentrations of the assayed MMP inhibitory compound. The experiment controls contained the same amount of Buffer A/DMSO as the assayed sample, but contained no hydroxamate (or salt thereof).
The assays from which the Ki determinations were made were performed as follows. The assayed hydroxamate samples were incubated in separate wells of untreated white polystyrene plates (Nunc Nalgene International, Rochester, N.Y.), and analyzed on a Tecan SpectraFlour Plus plate reader. The excitation wavelength was 330 nm, and the emission wavelength—420 nm. All samples (assayed hydroxamates and controls) were incubated in separate plate wells at room temperature for 1 hr in the presence of 4 μM of MMP substrate (II). In the absence of MMP inhibitory activity, substrate II was cleaved at the Gly-Leu bond resulting in an increase of relative fluorescence. Inhibition was observed as a reduced rate of this increase in relative fluorescence. The various hydroxamates were analyzed using a single low enzyme concentration with a single substrate concentration fixed at or below the Km. This protocol is a modification of method by Knight et al., FEBS Lett., 296(3), 263-266 (1992). Apparent inhibitory constants were determined by non-linear regression of reaction velocity as a function of inhibitor and enzyme concentration using Morrison's equation, as described by Kuzmic, Anal. Biochem. 286, 45-50 (2000). Modifications were made in the non-linear regression method to allow a common control reaction rate and effective enzyme concentration to be shared between all dose-response relationships on a given assay plate. […]

T2 sequence (P14780 107-707 limits assumed): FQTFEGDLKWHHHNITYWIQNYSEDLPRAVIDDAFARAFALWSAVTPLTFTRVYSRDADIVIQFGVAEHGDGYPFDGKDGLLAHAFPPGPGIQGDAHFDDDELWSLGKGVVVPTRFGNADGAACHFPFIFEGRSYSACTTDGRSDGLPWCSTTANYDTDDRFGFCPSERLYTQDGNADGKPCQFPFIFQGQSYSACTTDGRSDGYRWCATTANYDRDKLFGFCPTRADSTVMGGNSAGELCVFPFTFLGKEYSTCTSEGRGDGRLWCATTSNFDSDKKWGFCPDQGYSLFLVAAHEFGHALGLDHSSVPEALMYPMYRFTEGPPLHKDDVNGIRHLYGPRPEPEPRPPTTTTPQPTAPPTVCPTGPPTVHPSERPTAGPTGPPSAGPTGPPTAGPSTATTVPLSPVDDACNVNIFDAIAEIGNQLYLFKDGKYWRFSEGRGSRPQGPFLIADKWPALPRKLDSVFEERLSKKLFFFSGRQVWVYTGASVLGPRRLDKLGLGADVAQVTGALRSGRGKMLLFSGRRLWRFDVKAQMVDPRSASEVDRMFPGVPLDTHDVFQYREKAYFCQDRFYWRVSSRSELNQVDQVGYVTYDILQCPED

| Structure (SMILES) | Ki (Human recombinant MMP-2; value in parenthesis) [nM] | Ki (Human recombinant MMP-9; value in parenthesis) [nM] | Ki (Human recombinant MMP-2; value in parentheses) [nM] | Ki (Human recombinant MMP-9; value in parentheses) [nM] |
| --- | --- | --- | --- | --- |
| Cc1cc(-c2cccc(CCCOc3ccc(S(=O)(=O)C4(C(=O)NO)CCOCC4)cc3)c2)ccc1Cl [Example 166] | 8090 | 8690 |  |  |
| Cc1cc(-c2cccc(CCCOc3ccc(S(=O)(=O)C4(C(=O)NO)CCOCC4)cc3)c2)ccc1F [Example 168] | 5500 | 6500 |  |  |
| O=C(NO)C1(S(=O)(=O)c2ccc(OCCCc3cccc(-c4ccc(Cl)c(Cl)c4)c3)cc2)CCOCC1 [Example 169] | 5360 | 6500 |  |  |
| O=C(NO)C1(S(=O)(=O)c2ccc(OCCCc3cccc(-c4ccc(F)c(F)c4)c3)cc2)CCOCC1 [Example 170] | 1410 | 1500 |  |  |
| O=C(NO)C1(S(=O)(=O)c2ccc(OCCCc3cccc(-c4ccc(Cl)cc4Cl)c3)cc2)CCOCC1 [Example 171] | 3190 | 6600 |  |  |
| O=C(NO)C1(S(=O)(=O)c2ccc(OCCCc3cccc(-c4cc(Cl)cc(Cl)c4)c3)cc2)CCOCC1 [Example 172] | > 10000 | 9440 |  |  |
| CCCCc1ccc(-c2noc(CCCOc3ccc(S(=O)(=O)C4(C(=O)NO)CCOCC4)cc3)n2)c(C)c1 [Example 183] | 643 | 2510 |  |  |
| COCCN1CCC(C(=O)NO)(S(=O)(=O)c2ccc(OCCCc3nc(-c4ccc(C5(c6ccccc6)CC5)cc4)no3)cc2)CC1 [Example 185] | 116 | 220 |  |  |
| COCCN1CCC(C(=O)NO)(S(=O)(=O)c2ccc(OCCCc3nc(-c4cccc5ccccc45)no3)cc2)CC1 [Example 199] | 228 | 59.5 |  |  |
| O=C(NO)C1(S(=O)(=O)c2ccc(OCCCc3ccc(F)c(-c4ccccc4)c3)cc2)CCOCC1 [Example 504] |  |  | 434 | 2310 |
| CCCC(=O)CCCOc1ccc(S(=O)(=O)C2(C(=O)NO)CCOCC2)cc1 [Example 505] |  |  | 2.56 | 10.2 |
| CCCCC(=O)CCCOc1ccc(S(=O)(=O)C2(C(=O)NO)CCOCC2)cc1 [Example 506] |  |  | 1.92 | 11.4 |
| CCCCCCCOc1ccc(S(=O)(=O)C2(C(=O)NO)CCOCC2)cc1 [Example 507] |  |  | 0.84 | 0.44 |
| COCCN1CCC(C(=O)NO)(S(=O)(=O)c2ccc(OCCCc3cncc(-c4ccccc4)c3)cc2)CC1 [Example 508] |  |  | 22.8 | 160 |
| COCCN1CCC(C(=O)NO)(S(=O)(=O)c2ccc(OCCCc3cccc(-c4cccnc4)c3)cc2)CC1 [Example 509] |  |  | 89.3 | 50.9 |
| COCCN1CCC(C(=O)NO)(S(=O)(=O)c2ccc(OCCCc3cccc(-c4cccs4)c3)cc2)CC1 [Example 510] |  |  | 7.85 | 39.8 |
| COCCN1CCC(C(=O)NO)(S(=O)(=O)c2ccc(OCCCc3cccc(-c4cccc(F)c4)c3)cc2)CC1 [Example 511] |  |  | 526 | 38.5 |
| COCCN1CCC(C(=O)NO)(S(=O)(=O)c2ccc(OCCCc3cccc(-c4ccccc4F)c3)cc2)CC1 [Example 512] |  |  | 758 | 25.7 |
| COCCN1CCC(C(=O)NO)(S(=O)(=O)c2ccc(OCCCc3cccc(-c4ccc(F)cc4F)c3)cc2)CC1 [Example 513] |  |  | 880 | 255 |
| COCCN1CCC(C(=O)NO)(S(=O)(=O)c2ccc(OCCCc3cccc(-c4ccc(C#N)cc4)c3)cc2)CC1 [Example 514] |  |  | 293 | 224 |

From patent US20040024024A1, “Aromatic sulfone hydroxamates and their use as protease inhibitors” (priority 2001, published 2004)
